Six molecules from article PMC10387993, “New pyrimidine-N-β-D-glucosides: synthesis, biological evaluation, and molecular docking investigations” (Turkish Journal of Chemistry, 2023) can be followed below.

SMILES strings stand for the structures. ≈ marks a conversion by molar mass, not a printed value. Like-named read-outs stand apart in the source and are kept apart here. Some results are limits rather than exact numbers.

Holding throughout (type): cell-based
A short description of data set [1]: LDH cytotoxic activity assay, HT29. Particulars: human, HT29 cells; for cytotoxicity at 24 h, 25 μg/mL: HT29, 25 μg/mL; for cytotoxicity at 24 h, 50 μg/mL: HT29, 50 μg/mL; for cytotoxicity at 24 h, 75 μg/mL: HT29, 75 μg/mL; for cytotoxicity at 24 h, 100 μg/mL: HT29, 100 μg/mL. On the procedure: (§1) The cell lines were cultured in a cell medium (Dulbecco’s modified eagle’s or RPMI 1640) enriched with 10% (v/v) fetal bovine serum and 2% (v/v) Penicillin-Streptomycin (10,000 U/mL). First, old medium was removed out of the flask when the cells reached approximately 80% confluence. Next, cells were taken from the flasks surface using trypsin-EDTA solution and then subjected to centrifugation. Following, the cell pellet was suspended with fresh media and was inoculated into wells.
(§2) Approximately 5 × 10^3 cells in 100 μL were placed into 96-well plates as triplicates and treated with 25, 50, 75, and 100 μg/mL concentrations of test compounds at 37 °C with 5% CO2 for 24 h. LDH activity was obtained by determining absorbance at 492–630 nm using a microplate reader.

Data set [2] is described as follows: LDH cytotoxic activity assay, Hep3B. To be noted: human, Hep3B cells. How it is done:
as §1, §2

Data set [3] in a line: LDH cytotoxic activity assay, FL. To be noted: human, FL cells (normal cells). On the procedure: as §1, §2
A short description of data set [4]: LDH cytotoxic activity assay, C6. To be noted: rat, C6 glioma cells; for cytotoxicity at 24 h, 25 μg/mL: C6, 25 μg/mL; for cytotoxicity at 24 h, 50 μg/mL: C6, 50 μg/mL; for cytotoxicity at 24 h, 75 μg/mL: C6, 75 μg/mL; for cytotoxicity at 24 h, 100 μg/mL: C6, 100 μg/mL. On the procedure:
as §1, §2

A short description of data set [5]: LDH cytotoxic activity assay, A549. Particulars: human, A549 cells. How it is done:
as §1, §2

Data set [6] relates to S. aureus MSSA ATCC 29213. Description: Microdilution MIC assay. Particulars: S. aureus MSSA ATCC 29213, 24 h at 35 °C. A digest of the protocol:
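Read-out is visual: absence of turbidity after 24 h at 35 °C defines the MIC, the lowest such concentration in a microwell dilution series.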
Background: Broth dilution looks for growth in wells or tubes with falling amounts of substance.

Data set [7] can be described thus: in vitro. Particulars: human, LC50. How it is done: as §1
(§3) A cell suspension containing approximately 1 × 10^4 cells in 100 μL was seeded into the wells of 96-well culture plates. […]. The final volume of the wells was set to 200 μL by medium. Cell proliferation assay was evaluated by MTT (yellow tetrazolium MTT (3-(4,5-dimethylthiazolyl-2)-2,5-diphenyltetrazolium bromide) methods. Briefly, an MTT stock solution (5 mg of MTT/mL of distilled water) was filtered and kept at −20 °C until use. The cells were exposed to an MTT reagent (consisting of one parts of MTT stock solutions and nine parts of fresh RPMI 1640 without phenol red) for 4 h to form MTT formazan dye followed by the dye dissolved in DMSO with Sorenson’s buffer for 30 min at room temperature and then the plate was measured at 560 nm, with 690 nm as a reference interval, using a microplate reader. Each experiment was repeated at least three times for each cell line.
(§4) IC50 value is a concentration that inhibits half of the cells in vitro. The half maximal inhibitory concentration (IC50) of the test and control compounds was calculated using XLfit5 or excel spreadsheet and represent in μM at 95% confidence intervals. The proliferation assay results were expressed as the percent inhibition according to the following formula: % Inhibition = [1 - (Absorbance of Treatments /Absorbance of DMSO) × 100]. Three dose response parameters (GI50, TGI, LC50) were calculated according to the following formulas using the absorbance measurements of time zero (Tz), control growth (C), and test growth in the presence of drug (Ti). Growth inhibition of 50% (GI50) was calculated from [(Ti-Tz)/(C-Tz)] × 100 = 50, which is the drug concentration resulting in a 50% reduction in the net growth increase in control cells during the drug incubation. The drug concentration resulting in total growth inhibition (TGI) was calculated from Ti = Tz. The LC50 indicating a net loss of cells following treatment was calculated from [(Ti-Tz)/Tz] × 100 = −50.

Data set [8] has as its system normal FL cells. Briefly: cells. To be noted: for GI50 / IC50 / IC (total growth inhibition): FL normal cells, MTT; for IC50: read-out: IC50; for IC (total growth inhibition): read-out: TGI. How it is done: as §1, §3, §4
Data set [9] is described as follows: LDH cytotoxic activity assay, MCF7. To be noted: human, MCF7 cells. How it is done:
as §1, §2

Where [10] appears, read: Staphylococcus aureus, 24 h, read-out: MIC.

For `Cc1ccc(-c2cc(-c3ccccn3)nc(N[C@@H]3O[C@H](CO)[C@@H](O)[C@H](O)[C@H]3O)n2)cc1` [Compound 7, N-[4-(4-methylphenyl)-6-pyridin-2-ylpyrimidin-2-yl]-β-D-glucopyranosylamine], the cytotoxicity at 24 h, 25 μg/mL in data set [1] is 26%; in data set [2] (25 μg/mL) it was 9.37%; in [3] (FL, 25 μg/mL), 18.1%; in data set [4], 22%; in data set [5] (A549, 25 μg/mL), 24.3%; in [9] (MCF7, 25 μg/mL), 4.05%. In addition, the cytotoxicity at 24 h, 50 μg/mL in data set [1] was 40.7%; in data set [2] (50 μg/mL), 17%; in [3] (FL, 50 μg/mL), 30.5%; in data set [4], 48.6%; in data set [5] (A549, 50 μg/mL), 24.4%; in data set [9] (MCF7, 50 μg/mL), 20.1%. The cytotoxicity at 24 h, 75 μg/mL in [1] was 75.9%; in data set [2] (75 μg/mL), 34.3%; in [3] (FL, 75 μg/mL) it was 46.5%; in data set [4] it was 69.5%; in [5] (A549, 75 μg/mL) it was 27.4%; in data set [9] (MCF7, 75 μg/mL), 26.6%. Besides, the cytotoxicity at 24 h, 100 μg/mL in data set [1] was 91.8%; in [2] (100 μg/mL), 44.5%; in [3] (FL) it was 73.2%; in [3] (as the column head prints, head prints FL), 40.7%; in data set [4], 85.8%; in data set [5] (A549, 100 μg/mL), 40.6%. In addition, the MIC in data set [6] (setting [10]) was 250 µg/mL (≈ 589 µM). In addition, in data set [7], the LC50 (concentration causing 50% net cell loss) is > 500 µg/mL. This molecule registered a concentration for 50% growth inhibition (GI50) in data set [8] of 6.1 µg/mL (≈ 14.4 µM). In addition, the IC50 in data set [8] was found to be 255 µg/mL (≈ 600 µM). Moreover, in [8], the IC (total growth inhibition) was 266 µg/mL.

In [1], `CC(=O)OC[C@H]1O[C@@H](Nc2nc(-c3ccc(C)cc3)cc(-c3cccnc3)n2)[C@H](OC(C)=O)[C@@H](OC(C)=O)[C@@H]1OC(C)=O` [Compound 17, 2,3,4,6-tetra-O-acetyl-N-[4-(4-methylphenyl)-6-pyridin-3-ylpyrimidin-2-yl]-β-D-glucopyranosylamine] came in with a cytotoxicity at 24 h, 25 μg/mL of 21.7%; a cytotoxicity at 24 h, 50 μg/mL of 35.8%; a cytotoxicity at 24 h, 75 μg/mL of 51%; a cytotoxicity at 24 h, 100 μg/mL of 75.7%. In addition, in data set [4], the cytotoxicity at 24 h, 25 μg/mL worked out at 32%; the cytotoxicity at 24 h, 50 μg/mL came to 44.6%; the cytotoxicity at 24 h, 75 μg/mL turned out to be 67.6%; the cytotoxicity at 24 h, 100 μg/mL was determined as 81.8%. The molecule further gave a minimal inhibitory concentration (MIC) in [6] of 125 µg/mL (≈ 211 µM). The MIC in data set [6] (setting [10]) fell in the range of 62.5 to 125 µg/mL (≈ 105 to 211 µM). The LC50 (concentration causing 50% net cell loss) in data set [7] is > 500 µg/mL. In addition, in data set [8], the GI50 worked out at 17.2 µg/mL (≈ 29 µM), the IC50 was > 500 µg/mL and the IC (total growth inhibition) was > 500 µg/mL.

For `Cc1ccccc1-c1cc(-c2ccncc2)nc(N[C@@H]2O[C@H](CO)[C@@H](O)[C@H](O)[C@H]2O)n1` [Compound 3, N-[4-(2-methylphenyl)-6-pyridin-4-ylpyrimidin-2-yl]-β-D-glucopyranosylamine], in [1], the cytotoxicity at 24 h, 25 μg/mL was found to be 33.1%; the cytotoxicity at 24 h, 50 μg/mL turned out to be 49.9%; the cytotoxicity at 24 h, 75 μg/mL is 71.1%; the cytotoxicity at 24 h, 100 μg/mL was determined as 98.7%. Moreover, in data set [4], the cytotoxicity at 24 h, 25 μg/mL stood at 25.3%; the cytotoxicity at 24 h, 50 μg/mL came out at 32.1%; the cytotoxicity at 24 h, 75 μg/mL worked out at 74%; the cytotoxicity at 24 h, 100 μg/mL is 99.7%. Also, the MIC in data set [6] (setting [10]) is 1000 µg/mL (≈ 2360 µM). The LC50 (concentration causing 50% net cell loss) in data set [7] was > 500 µg/mL. Further, in data set [8], the GI50 was 6.56 µg/mL (≈ 15.5 µM), the IC50 is > 500 µg/mL and the IC (total growth inhibition) was > 500 µg/mL.

For the molecule `Cc1ccccc1-c1cc(-c2cccnc2)nc(N[C@@H]2O[C@H](CO)[C@@H](O)[C@H](O)[C@H]2O)n1` [Compound 2, N-[4-(2-methylphenyl)-6-pyridin-3-ylpyrimidin-2-yl]-β-D-glucopyranosylamine], in data set [1], the cytotoxicity at 24 h, 25 μg/mL was 27.7%; the cytotoxicity at 24 h, 50 μg/mL amounted to 44.8%; the cytotoxicity at 24 h, 75 μg/mL is 72.7%; the cytotoxicity at 24 h, 100 μg/mL worked out at 94.6%. Moreover, in data set [4], the cytotoxicity at 24 h, 25 μg/mL stood at 30.8%; the cytotoxicity at 24 h, 50 μg/mL stood at 49.8%; the cytotoxicity at 24 h, 75 μg/mL worked out at 72.7%; the cytotoxicity at 24 h, 100 μg/mL was 99.8%. The molecule also yielded an MIC in [6] of 125 µg/mL (≈ 294 µM). Besides, in data set [6] (setting [10]), the MIC lay in the range of 62.5 to 125 µg/mL (≈ 147 to 294 µM). Also, the LC50 (concentration causing 50% net cell loss) in data set [7] was > 500 µg/mL. Moreover, in data set [8], the 50% growth inhibitory concentration (GI50) stood at 3.68 µg/mL (≈ 8.67 µM), the IC50 was determined as 457 µg/mL (≈ 1080 µM) and the IC (total growth inhibition) was > 500 µg/mL.

On to `CC(=O)OC[C@H]1O[C@@H](Nc2nc(-c3cccnc3)cc(-c3ccccc3C)n2)[C@H](OC(C)=O)[C@@H](OC(C)=O)[C@@H]1OC(C)=O` [Compound 11, 2,3,4,6-tetra-O-acetyl-N-[4-(2-methylphenyl)-6-pyridin-3-ylpyrimidin-2-yl]-β-D-glucopyranosylamine], for which, in data set [1], the cytotoxicity at 24 h, 25 μg/mL was 36.1%; the cytotoxicity at 24 h, 50 μg/mL came to 49.3%; the cytotoxicity at 24 h, 75 μg/mL is 63.8%; the cytotoxicity at 24 h, 100 μg/mL amounted to 90.6%. For the same molecule, in data set [4], the cytotoxicity at 24 h, 25 μg/mL was determined as 26.4%; the cytotoxicity at 24 h, 50 μg/mL was 42.2%; the cytotoxicity at 24 h, 75 μg/mL was 77%; the cytotoxicity at 24 h, 100 μg/mL amounted to 84.8%. In data set [6], this molecule gave an MIC of 125 µg/mL (≈ 211 µM). Also, the MIC in data set [6] (setting [10]) lay within 62.5 to 125 µg/mL (≈ 105 to 211 µM). Moreover, in data set [7], the LC50 (concentration causing 50% net cell loss) was > 500 µg/mL. Moreover, in data set [8], it took 11.2 µg/mL (≈ 18.8 µM) to inhibit growth by half (GI50), the IC50 was > 500 µg/mL and the IC (total growth inhibition) was > 500 µg/mL.

Consider `CC(=O)OC[C@H]1O[C@@H](Nc2nc(-c3ccncc3)cc(-c3ccc(C)cc3)n2)[C@H](OC(C)=O)[C@@H](OC(C)=O)[C@@H]1OC(C)=O` [Compound 18, 2,3,4,6-tetra-O-acetyl-N-[4-(4-methylphenyl)-6-pyridin-4-ylpyrimidin-2-yl]-β-D-glucopyranosylamine], for which, in data set [1], the cytotoxicity at 24 h, 25 μg/mL is 27.9%; the cytotoxicity at 24 h, 50 μg/mL is 45.5%; the cytotoxicity at 24 h, 75 μg/mL came to 58.1%; the cytotoxicity at 24 h, 100 μg/mL was 82.8%. For the same molecule, in [4], the cytotoxicity at 24 h, 25 μg/mL worked out at 27.2%; the cytotoxicity at 24 h, 50 μg/mL was found to be 44.1%; the cytotoxicity at 24 h, 75 μg/mL turned out to be 75.2%; the cytotoxicity at 24 h, 100 μg/mL turned out to be 86.5%. The MIC in data set [6] (setting [10]) is 1000 µg/mL (≈ 1690 µM). For the same molecule, the LC50 (concentration causing 50% net cell loss) in data set [7] is > 500 µg/mL. In [8], the GI50 worked out at 2.01 µg/mL (≈ 3.39 µM), the IC50 stood at 7.46 µg/mL (≈ 12.6 µM) and the IC (total growth inhibition) amounted to 7.58 µg/mL. The LC50 in [8] (human) stood at 352.27 µg/mL (≈ 594 µM).

A word on the MIC: it is the least concentration at which growth counts as inhibited. Usually GI50 stands for the concentration that inhibits growth by half. As a reminder, the IC50 is the midpoint of a concentration-inhibition curve. As a reminder, the LC50 is the concentration that kills 50% of the test population.
